The record followed here is US20260306460A1, “COMPOSITION FOR REMOVING AND INHIBITING SENESCENT CELLS, AND USES THEREOF” (LIFECEUTIX CO., LTD., priority 2023, published 2026).

“Also recorded” adds a separate entry of the source.

One data set relates to senescent human cells. Kind of data set: Viability of doxorubicin-induced senescent human cells (CellTiter-Glo), Example 11. It is filed as cell-based. The following applies: excessive concentrations (1 or 20 mM). Background: ATP-based viability assays read luminescence as a measure of living cells.
For a further data set, the system named is senescent foreskin cells. Kind of data set: Survival of senescent human cells treated with supernatant (secreted fluid) from death-induced cells, Example 13. The format is cell-based. The following applies: for Survival: Table 8, supernatant from dying senescent cells treated at 30, 90 or 270 μM (as Example 11), senescent treated cells.
The test system of data set [1] is carbon tetrachloride-induced liver fibrosis mice. Kind of data set: Carbon tetrachloride-induced liver fibrosis mice, Example 31, Table 57. The format is in vivo, mouse. The following applies: CCl4-induced liver fibrosis mice, untreated = 100%. Summed up:
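Mice with induced hepatic fibrosis received either the test compound or, as controls, an equal volume of vehicle solution alone. Once dosing ended, liver tissue was harvested and total RNA was isolated. cDNA was synthesized from this RNA, and quantitative RT-PCR was run on it to measure hepatic mRNA levels of the fibrosis- and senescence-related genes.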

The subject of data set [2] is HMGN1 secreted from senescent A549 cells. Kind of data set: HMGN1 secretion (ELISA) from senescent A549 cancer cells, Example 12.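 Note: A549 cells made senescent by doxorubicin exposure, with DMSO-treated cells serving as the non-senescent control.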 The conditions noted are these: senescent untreated = 100%; 30 μM; 90 μM for LX-305, 905, 1302, 1601, 1603, 2003, 2702, 2901, 3106; 270 μM for LX-1103, 2005, 2007. It is filed as cell-based, human.
Description: Cells were treated with doxorubicin or control (DMSO) and cultured.
The test system of data set [3] is bleomycin-induced pulmonary fibrosis mice. Description: Bleomycin-induced pulmonary fibrosis mice, Example 31, Table 56. The format is in vivo, mouse. The following applies: untreated = 100%. In a few lines: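 Mice with bleomycin-induced pulmonary fibrosis, untreated or given test compound, with vehicle-only controls. Lung tissue collected for RNA extraction and qRT-PCR analysis.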

The test system of another data set is naturally aged mice. Description: Anti-aging evaluation in naturally aged mice, Example 31, Table 55.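 For all read-outs here: Vehicle-dosed control mice received solution alone at matching volume, values compare test-compound-treated aged mice against that control.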 The format is in vivo, mouse. The following applies: for Femur Ctsk mRNA / Kidney Agtr1a mRNA / Liver IL6 mRNA / Liver MMP3 mRNA / Liver p16 mRNA / Open Field Test Time in Center: untreated = 100%; for Heart Sur2a mRNA / Joint Col2a1 mRNA / Skin Col1a1 mRNA / Skin SDF1 mRNA: untreated = 1.0; for Muscle Mass: untreated 0.64 g; for Fat Mass: untreated 0.82 g; for Cataract incidence: untreated 83%.

Data set [4] relates to naturally aged C57BL6J mice. The format is in vivo, mouse. The conditions noted are these: mouse, in vivo.
A further data set concerns senescent cells. Description: Viability of senescent cells (CellTiter-Glo), Example 17, Table 13. The following applies: Homo sapiens, read-out: Survival (%).
The subject of the next data set is senescent A549 cells. Kind of data set: Viability of senescent A549 cells (CellTiter-Glo), Example 18, Table 15. The conditions noted are these: Homo sapiens, A549, read-out: Survival (%).

Description for senescent cells: Cells induced to undergo senescence by doxorubicin treatment were treated with test compound at designated concentrations and measured using the CellTiter-Glo Luminescent Cell Viability Assay (Promega).

For `OO` [H2O2], the “removal of senescent cells” value in the data set with senescent human cells was “hardly removed”.
With `O=c1c2ccccc2[se]n1CCn1[se]c2ccccc2c1=O` [LX-112, 1,2-[bis(1,2-benzisoselenazolone-3 (2H)-ketone)]ethane], the “death of senescent cells by medium supernatant” value in the data set on senescent foreskin cells (supernatants from proliferating and senescent death-induced cells) is listed as “selectively induced the death of senescent cells; also recorded: same results”.
For the molecule `CCn1c(C#CCNc2ccccc2)cc2cc(CNC)ccc21` [LX-905], in [1], the “Liver p16 mRNA” value is 76 (±6.0) % and the “Col1a1 mRNA” value is reported as 71 (±7.5) %. Further, the HMGN1 in [2] came to 217%. In data set [3], the “Lung p16 mRNA” value is reported as 67 (±5.5) % and the “Col1a1 mRNA” value is 59 (±13.3) %. In the data set with naturally aged mice, the “Femur Ctsk mRNA” value amounted to 62%, the “Heart Sur2a mRNA” value is 2.4 fold, the “Joint Col2a1 mRNA” value was determined as 2.3 fold and the “Kidney Agtr1a mRNA” value stood at 52%. In the data set with naturally aged mice, the “Liver IL6 mRNA” value is on record as 38%, the “Liver MMP3 mRNA” value was found to be 76%, the “Liver p16 mRNA” value came out at 67% and the “Open Field Test Time in Center” value is recorded as 241%. Also, in the data set with naturally aged mice, the “Skin Col1a1 mRNA” value came out at 2.0 Fold, the “Skin SDF1 mRNA” value is 1.5 fold, the “Muscle Mass” value is reported as 0.69 g and the “Fat Mass” value turned out to be 1.08 g. In the data set on naturally aged mice, this molecule registered a Cataract incidence of 65%. The molecule also had a Survival in the data set on senescent foreskin cells of 46.5.
With `NCC(=O)CCC(=O)O` [LX-1103, 5-Aminolevulinic acid], in data set [1], the “Liver p16 mRNA” value was 77 (±3.5) % and the “Col1a1 mRNA” value was 60 (±6.9) %. The molecule further came in with an HMGN1 in data set [2] of 158%. Also, in data set [3], the “Lung p16 mRNA” value is 73 (±3.2) % and the “Col1a1 mRNA” value is 76 (±5.3) %. In addition, in the data set with naturally aged mice, the “Femur Ctsk mRNA” value was determined as 78%, the “Heart Sur2a mRNA” value worked out at 2.4 fold, the “Joint Col2a1 mRNA” value is listed as 2.8 fold and the “Kidney Agtr1a mRNA” value came out at 76%. In the data set with naturally aged mice, the “Liver IL6 mRNA” value is 70%, the “Liver MMP3 mRNA” value is reported as 68%, the “Liver p16 mRNA” value worked out at 47% and the “Open Field Test Time in Center” value was determined as 183%. In the data set on naturally aged mice, the “Skin Col1a1 mRNA” value turned out to be 2.3 Fold, the “Skin SDF1 mRNA” value is reported as 1.7 fold, the “Muscle Mass” value was 0.68 g and the “Fat Mass” value turned out to be 0.89 g. The molecule further gave a Cataract incidence with naturally aged mice of 54%. Also, the Survival with senescent foreskin cells was determined as 101.8.
For the molecule `COc1cc(OC)cc(N(CCNC(C)C)c2ccc3ncc(-c4cnn(C)c4)nc3c2)c1` [LX-1903, Erdafitinib], in [1], the “Liver p16 mRNA” value is 67 (±9.2) % and the “Col1a1 mRNA” value is 62 (±6.9) %. Also, in [3], the “Lung p16 mRNA” value is reported as 73 (±6.6) % and the “Col1a1 mRNA” value was 70 (±9.3) %. Also, in the data set on naturally aged mice, the “Femur Ctsk mRNA” value is 77%, the “Heart Sur2a mRNA” value came to 1.4 fold, the “Joint Col2a1 mRNA” value is given as 1.7 fold and the “Liver IL6 mRNA” value turned out to be 58%. Besides, in the data set with naturally aged mice, the “Liver MMP3 mRNA” value came to 75%, the “Liver p16 mRNA” value is given as 69%, the “Open Field Test Time in Center” value is 161% and the “Skin Col1a1 mRNA” value was 1.2 Fold. Also, in the data set with naturally aged mice, the “Skin SDF1 mRNA” value is given as 1.4 fold, the “Muscle Mass” value is reported as 0.69 g, the “Fat Mass” value amounted to 0.97 g and the Cataract incidence was 79%. In the data set on senescent foreskin cells, this molecule showed a Survival of 62.8.
As for `CCC[C@H]1C(=O)C(C#N)=C[C@@]2(C)c3nc(-c4cccc5ncccc45)nc(-c4ccccc4F)c3CC[C@H]12` [LX-2503], the wound/damage healing improvement entry in [4] is “damage treatment and recovery”.
Still for that read-out and setting: the entry for `C[C@H]1C(=O)C(C#N)=C[C@@]2(C)c3c(c(-c4ccccc4)nn3-c3ccc(-c4cccc(CO)c4)cc3)CC[C@H]12` [LX-2505] is “damage treatment and recovery”; for `Cc1cc(-c2ccc(-n3nc(-c4ccccc4F)c4c3[C@]3(C)C=C(C#N)C(=O)[C@H](C)[C@H]3CC4)cc2)cnn1` [LX-2506] it is “damage treatment and recovery”; for `C[C@@H]1C(=O)C(C#N)=C[C@]2(C)C3=CC(=O)[C@@H]4[C@@H]5CC(C)(C)CC[C@]5(c5nnc(CF)o5)CC[C@@]4(C)[C@]3(C)CC[C@@H]12` [LX-2507] it is “damage treatment and recovery”.
On the same count and under the same terms, to `CC1(C)CC[C@]2(c3nc(CO)no3)CC[C@]3(C)[C@H](C(=O)C=C4[C@@]5(C)C=C(C#N)C(=O)C(C)(C)[C@@H]5CC[C@]43C)[C@@H]2C1` [LX-2508] belongs “damage treatment and recovery”; to `C=CC(=O)NC[C@]12CCC(C)(C)C[C@H]1[C@H]1C(=O)C=C3[C@@]4(C)C=C(C#N)C(=O)C(C)(C)[C@@H]4CC[C@@]3(C)[C@]1(C)CC2` [LX-2509], “damage treatment and recovery”.
`CCC(=O)NC[C@]12CCC(C)(C)C[C@H]1[C@H]1C(=O)C=C3[C@@]4(C)C=C(C#N)C(=O)C(C)(C)[C@@H]4CC[C@@]3(C)[C@]1(C)CC2` [LX-2510]: in data set [4], the wound/damage healing improvement entry was “damage treatment and recovery”.
On the same count and under the same terms, to `C[C@@H]1[C@H]2[C@H]3C(=O)C=C4[C@@]5(C)C=C(C#N)C(=O)C(C)(C)[C@@H]5CC[C@@]4(C)[C@]3(C)CC[C@@]2(c2nc(CCO)no2)CC[C@H]1C` [LX-2511] belongs “damage treatment and recovery”; to `C[C@@H]1[C@H]2[C@H]3C(=O)C=C4[C@@]5(C)C=C(C#N)C(=O)C(C)(C)[C@@H]5CC[C@@]4(C)[C@]3(C)CC[C@@]2(CO)CC[C@H]1C` [LX-2512], “damage treatment and recovery”; to `COC(=O)[C@@]1(C)CC[C@]2(C)CC[C@]3(C)[C@H](C(=O)C=C4[C@@]5(C)C=C(C#N)C(=O)C(C)(C)C5CC[C@]43C)[C@@H]2C1` (stereo partly drawn) [LX-2513, Soloxolone methyl], “damage treatment and recovery”.
Still for that read-out and setting: the entry for `CC1(C)C(=O)C(C#N)=C[C@]2(C)C3=CC(=O)[C@@H]4[C@@H]5C[C@@](C)(C(=O)NCCc6c[nH]c7ccccc67)CC[C@]5(C)CC[C@@]4(C)[C@]3(C)CCC12` (stereo partly drawn) [LX-2517, Soloxolone tryptamide] is “damage treatment and recovery”.
Regarding `C=C(C)[C@@H]1CC[C@]2(C)CC[C@]3(C)[C@H](CC[C@@H]4[C@@]5(C)CC[C@H](O)C(C)(C)[C@@H]5CC[C@]43C)[C@@H]12` [LX-5433, Lupeol], in the data set on senescent cells, the viability at 1.1 µM was 108%, the viability at 10 µM was 71.1%, the viability at 30 µM came out at 51.8% and the viability at 90 µM came out at 2.4%. Besides, the wound/damage healing improvement result in data set [4] is “damage treatment and recovery”. Also, in the data set with senescent A549 cells, the viability at 1.1 µM worked out at 97.8%, the viability at 10 µM was found to be 76.5%, the viability at 30 µM worked out at 64.7% and the viability at 90 µM is 19.3%.
Regarding `CC(=O)N[C@@H](CS)C(=O)O` [NAC, N-acetyl cysteine], the “removal of senescent cells” value in the data set on senescent human cells is “hardly removed”.
